Results taken from patent US20150005320A9, “COMPOUNDS FOR INFLAMMATION AND IMMUNE-RELATED USES” (Synta Pharmaceuticals Corp., priority 2003, published 2015).

Columns and labels:
[1] = tested on: IL-2 production; test: Inhibition of IL-2 production in PHA-activated Jurkat cells (ELISA); type: cell-based; conditions: Homo sapiens, 20 h
Protocol: Jurkat cells were placed in a 96 well plate (0.5 million cells per well in 1% FBS medium) then test compounds of this invention were added at different concentrations. After 10 minutes, the cells were activated with PHA (final concentration 2.5 μg/mL) and incubated for 20 hours at 37° C. under CO2. The final volume was 200 μL. Following incubation, the cells were centrifuged and the supernatants collected and stored at −70° C. prior to assaying for IL-2 production. A commercial ELISA kit (IL-2 Eli-pair, Diaclone Research, Besancon, France) was used to detect production of IL-2, from which dose response curves were obtained. The IC50 value was calculated as the concentration at which 50% of maximum IL-2 production after stimulation was inhibited versus a non-stimulation control.

[2] = target: CRAC ion channel (Rattus norvegicus, UniProt Q5M848); test: Patch clamp inhibition of ICRAC current in RBL cells; type: cell-based; conditions: whole-cell patch clamp, read-out: IC50 (concentration which inhibits 50% of the ICRAC current)
Chain of CRAC ion channel (Rattus norvegicus, UniProt Q5M848) (Q5M848 whole entry, the tested form may be a part): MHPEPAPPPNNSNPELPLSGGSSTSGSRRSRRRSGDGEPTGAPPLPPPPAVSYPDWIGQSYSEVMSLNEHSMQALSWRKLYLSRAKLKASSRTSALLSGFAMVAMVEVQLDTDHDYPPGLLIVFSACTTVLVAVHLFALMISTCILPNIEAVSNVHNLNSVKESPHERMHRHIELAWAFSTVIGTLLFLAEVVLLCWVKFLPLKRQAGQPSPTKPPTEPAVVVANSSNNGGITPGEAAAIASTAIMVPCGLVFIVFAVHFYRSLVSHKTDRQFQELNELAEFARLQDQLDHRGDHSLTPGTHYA
Chain of CRAC ion channel (Rattus norvegicus, UniProt Q5M848) (P84903 23-685, further chain): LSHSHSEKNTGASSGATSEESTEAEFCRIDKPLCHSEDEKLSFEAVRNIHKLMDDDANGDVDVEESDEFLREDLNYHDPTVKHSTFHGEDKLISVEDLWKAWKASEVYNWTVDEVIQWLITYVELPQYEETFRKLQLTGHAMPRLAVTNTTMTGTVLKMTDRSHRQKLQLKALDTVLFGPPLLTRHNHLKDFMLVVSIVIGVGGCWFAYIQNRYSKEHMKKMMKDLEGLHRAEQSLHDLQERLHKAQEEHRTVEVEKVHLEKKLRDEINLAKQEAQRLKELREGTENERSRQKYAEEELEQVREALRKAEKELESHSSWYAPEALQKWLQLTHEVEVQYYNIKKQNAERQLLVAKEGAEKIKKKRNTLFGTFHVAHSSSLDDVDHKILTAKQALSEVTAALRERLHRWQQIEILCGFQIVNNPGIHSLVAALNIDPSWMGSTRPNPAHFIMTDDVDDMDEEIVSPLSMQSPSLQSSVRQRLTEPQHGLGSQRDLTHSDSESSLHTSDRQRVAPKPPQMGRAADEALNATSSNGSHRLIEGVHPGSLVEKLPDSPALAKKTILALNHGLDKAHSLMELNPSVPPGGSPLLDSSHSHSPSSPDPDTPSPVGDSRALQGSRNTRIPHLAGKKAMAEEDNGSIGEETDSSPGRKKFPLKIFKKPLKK
Protocol: In general, a whole cell patch clamp method was used to examine the effects of a compound of the invention on a channel that mediates Icrac. In such experiments, a baseline measurement was established for a patched cell. Then a compound to be tested was perfused (or puffed) to cells in the external solution and the effect of the compound on Icrac was measured. A compound that modulates Icrac (e.g., inhibits) is a compound that is useful in the invention for modulating CRAC ion channel activity.
Rat basophilic leukemia cells (RBL-2H3) were grown in DMEM media supplemented with 10% fetal bovine serum in an atmosphere of 95% air/5% CO2. Cells were seeded on glass coverslips 1-3 days before use.
Membrane currents of individual cells were recorded using the whole-cell configuration of the patch clamp technique with an EPC10 (HEKA Electronik, Lambrecht, Germany). Electrodes (2-5 MO in resistance) were fashioned from borosilicate glass capillary tubes (Sutter Instruments, Novato, Ca). The recordings were done at room temperature.
Cs-Glutamate 120 mM; CsCl 20 mM; CsBAPTA 10 mM; CsHEPES 10 mM; NaCl 8 mM; MgCl2 1 mM; IP3 0.02 mM; pH=7.4 adjusted with CsOH. (Shielded from light and kept on ice before experiment)
NaCl 138 mM; NaHEPES, 10 mM; CsCl 10 mM; CaCl2 10 mM; Glucose 5.5 mM; KC1-5.4 mM; KH2PO4 0.4 mM; Na2HPO4H2 0.3 mM at pH=7.4 adjusted with NaOH.
Each compound was diluted from a 10 mM stock in series using DMSO (10 μM, 3.2 μM, […], 316 nM, 100 nM, 32 nM). The final DMSO concentration was always kept at 0.1%.
ICRAC currents were monitored every 2 seconds using a 50 msec protocol, where the voltage was ramped from −100 mV to +100 mV. The membrane potential was held at 0 mV between the test ramps. In a typical experiment the peak inward currents would develop within 50-100 seconds. […]
The ICRAC current level was determined by measuring the inward current amplitude at −80 mV of the voltage ramp in an off-line analysis using MATLAB. The ICRAC current inhibition for each concentration was calculated using peak amplitude in the beginning of the experiment from the same cell. […]

[3] = tested on: IL-2 production; test: IL-2 production upon PMA/ionomycin stimulation in whole blood from dosed cynomolgus monkeys; type: in vivo; conditions: cynomolgus monkey, IV 5 mg/kg, 4 hours after dosing, FIG. 3
Protocol: (§1) 3 male non-naïve cynomolgus monkeys were fasted overnight prior to and for four (4) hours following each dose. Each monkey was given a single intravenous dose of the appropriate test compound followed by a 1 mL rinse of saline to flush the catheter. The dose was infused over one hour using calibrated syringe pumps. Following a one week washout, the same three monkeys were given a single oral gavage dose of the appropriate test compound dose formulation followed by a 10 mL flush with tap water. Following a second one week washout, the same three monkeys received a second oral dose of the appropriate test compound dose formulation followed by a 10 mL flush with tap water. Following a third one week washout, the same three monkeys received a third oral dose of the appropriate test compound dose formulation followed by a 10 mL flush with tap water. Prior to and at 1, 2, and 4 hours following each dose (measured from the start of dosing for IV doses), blood samples (3 mL/sample for Group 1 and 2 mL/sample for Groups 2 and 3) were drawn into tubes containing sodium heparin and stored at room temperature, and the concentration of the test compounds in each sample was measured. CsA was included as a positive control.

[4] = tested on: CRAC ion channel; test: Patch clamp inhibition of ICRAC current in primary T cells; type: cell-based; conditions: primary human T cells, FIG. 1
Protocol: Primary T cells were obtained from human whole blood samples by adding 100 μL of RosetteSep® human T cell enrichment cocktail to 2 mL of whole blood. The mixture was incubated for 20 minutes at room temperature, then diluted with an equal volume of PBS containing 2% FBS. The mixture was layered on top of RosetteSep® DM-L density medium and then centrifuged for 20 minutes at 1200 g at room temperature.
The enriched T cells were recovered from the plasma/density medium interface, then washed with PBS containing 2% FBS twice, and used in patch clamp experiments following the procedure described for RBL cells.

[5] = tested on: TNF-α production; test: TNF-α production upon PMA/ionomycin stimulation in whole blood from dosed cynomolgus monkeys; type: in vivo; conditions: cynomolgus monkey, IV 5 mg/kg, 4 hours after dosing, FIG. 4
Protocol: as §1

| Structure (SMILES) | IC50 ([1]; bins in nM) [nM] | IC50 [2] [nM] | other results |
| --- | --- | --- | --- |
| O=C(Nc1ccc(-c2cc(C(F)(F)F)ccc2C(F)(F)F)cc1)c1ccnc2ccccc12 [Compound 57, quinoline-4-carboxylic acid (2′,5′-bis-trifluoromethyl-biphenyl-4-yl)-amide] | – | – | IC50 ([1]; bin printed with mixed units nM and μM): 500 to 1000 nM |
| Cc1nnsc1C(=O)Nc1ccc(-c2cc(C(F)(F)F)ccc2Cl)cc1 [Compound 27, 4-Methyl-[1,2,3]thiadiazole-5-carboxylic acid (2′-chloro-5′-trifluoromethyl-biphenyl-4-yl)-amide] | – | 400 | – |
| COc1ccc(Cl)cc1-c1ccc(NC(=O)c2cc(F)c(F)cc2F)cc1 [Compound 84, N-(2′-methoxy-5′-chloro-biphenyl-4-yl)-2,4,5-trifluorobenzamide] | – | 300 | – |
| COc1ccc(OC)c(-c2ccc(NC(=O)c3cccc(F)c3F)cc2)c1 [Compound 31, N-(2′,5′-Dimethoxy-biphenyl-4-yl)-2,3-difluoro-benzamide] | – | 100 | IL-2 production after IV infusion [3]: significantly inhibit; inhibition of ICRAC current in primary T cells compared with RBL cells [4]: inhibits ICRAC current equally well in primary T cells as in RBL cells; TNF-α production after IV infusion [5]: significantly inhibit |

Continued, in another order:

| IC50 ([1]; bins in nM) [nM] | Structure (SMILES) | IC50 [2] [nM] | other results |
| --- | --- | --- | --- |
| 100 to 500 | Cc1nocc1C(=O)Nc1ccc(-c2cc(C(F)(F)F)ccc2C(F)(F)F)cc1 [Compound 48, 3-methylisoxazole-4-carboxylic acid (2′,5′-bis-trifluoromethyl-biphenyl-4-yl)-amide] | – | – |
| < 100 | COc1ccc(C)cc1-c1ccc(NC(=O)c2cccc(F)c2F)cc1 [Compound 46, N-(2′-methoxy-5′-methyl-biphenyl-4-yl)-2,3-difluorobenzamide] | – | – |
